Experimental data from the supplement of paper PMC10307832.

Legend:
Assay in all cases: relative viability (nuclei count vs DMSO), 5 days (fraction); higher = more cells survive
[1] = compound: CC(C)(C)c1cc(NC(=O)Nc2ccc(-c3cn4c(n3)sc3cc(OCCN5CCOCC5)ccc34)cc2)no1 [Quizartinib] + CC(=O)c1c(C)c2cnc(Nc3ccc(N4CCNCC4)cn3)nc2n(C2CCCC2)c1=O [Palbociclib] (partner 0.5 µM)
Outline: (§1)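 Each reported value is a median over duplicate plates. It expresses relative viability: treated-well nuclei count divided by vehicle-well nuclei count. Lung cancer cell lines in 1536-well plates were dosed by pin tool a day after seeding, alone with one drug or with a fixed anchor-drug dose plus five library-drug doses (not always all listed) in √10 steps, and nuclei were counted after 5 days.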

Quizartinib + Pemetrexed = compound: CC(C)(C)c1cc(NC(=O)Nc2ccc(-c3cn4c(n3)sc3cc(OCCN5CCOCC5)ccc34)cc2)no1 [Quizartinib] + Nc1nc2[nH]cc(CCc3ccc(C(=O)N[C@@H](CCC(=O)O)C(=O)O)cc3)c2c(=O)[nH]1 [Pemetrexed] (partner 0.2 µM)
Outline: as §1

YM155 + Decitabine = compound: COCC[n+]1c2c(n(Cc3cnccn3)c1C)C(=O)c1ccccc1C2=O [YM155] + Nc1ncn([C@H]2C[C@H](O)[C@@H](CO)O2)c(=O)n1 [Decitabine] (partner 2 µM)
Outline: as §1

YM155 + Alpelisib = compound: COCC[n+]1c2c(n(Cc3cnccn3)c1C)C(=O)c1ccccc1C2=O [YM155] + Cc1nc(NC(=O)N2CCC[C@H]2C(N)=O)sc1-c1ccnc(C(C)(C)C(F)(F)F)c1 [Alpelisib] (partner 2 µM)
Outline: as §1

Row | Cell Line | relative viability ([1]; first compound 0.001 µM) | relative viability ([1]; first compound 0.003162 µM) | relative viability ([1]; first compound 0.01 µM) | relative viability ([1]; first compound 0.03162 µM) | relative viability ([1]; first compound 0.1 µM) | relative viability (Quizartinib + Pemetrexed; first compound 0.001 µM) | relative viability (Quizartinib + Pemetrexed; first compound 0.003162 µM) | relative viability (Quizartinib + Pemetrexed; first compound 0.01 µM) | relative viability (Quizartinib + Pemetrexed; first compound 0.03162 µM) | relative viability (Quizartinib + Pemetrexed; first compound 0.1 µM) | relative viability (YM155 + Decitabine; first compound 0.002 µM) | relative viability (YM155 + Decitabine; first compound 0.006325 µM) | relative viability (YM155 + Decitabine; first compound 0.02 µM) | relative viability (YM155 + Decitabine; first compound 0.06325 µM) | relative viability (YM155 + Alpelisib; first compound 0.002 µM) | relative viability (YM155 + Alpelisib; first compound 0.006325 µM) | relative viability (YM155 + Alpelisib; first compound 0.02 µM) | relative viability (YM155 + Alpelisib; first compound 0.06325 µM)
1 | EPLC-272H | 0.304 | 0.355 | 0.301 | 0.311 | 0.312 | 0.255 | 0.361 | 0.4 | 0.26 | 0.305 | 0.322 | 0.33 | 0.352 | 0.365 | 0.917 | 0.937 | 0.915 | 1.02
2 | H3255 | 0.318 | 0.358 | 0.329 | 0.305 | 0.309 | 0.531 | 0.579 | 0.546 | 0.593 | 0.586 | 0.533 | 0.645 | 0.622 | 0.558 | 0.707 | 0.658 | 0.714 | 0.682
3 | HARA | 0.233 | 0.23 | 0.261 | 0.248 | 0.259 | 0.257 | 0.266 | 0.266 | 0.222 | 0.304 | – | 0.566 | 0.578 | 0.57 | 0.876 | 0.961 | 0.842 | 0.86
4 | HCC-15 | 0.651 | 0.751 | 0.72 | 0.734 | 0.753 | 0.223 | 0.21 | 0.248 | 0.216 | 0.224 | 0.634 | 0.627 | 0.704 | 0.658 | 0.96 | 0.826 | 0.927 | 0.879
5 | HCC-44 | 0.943 | 1.04 | 0.997 | 0.921 | 0.949 | 0.572 | 0.665 | 0.655 | 0.65 | 0.606 | 0.936 | 1 | 0.929 | 0.964 | 0.749 | 0.766 | 0.813 | 0.862
6 | HCC-78 | – | 0.476 | 0.494 | 0.404 | 0.453 | 0.915 | 0.882 | 0.968 | 0.869 | 0.917 | 0.647 | 0.751 | 0.739 | 0.741 | 0.341 | 0.436 | 0.361 | 0.438
7 | HCC-366 | 0.318 | 0.384 | 0.374 | 0.382 | 0.436 | 0.148 | 0.148 | 0.129 | 0.165 | 0.178 | 0.358 | 0.366 | 0.345 | 0.316 | 0.365 | 0.428 | 0.375 | 0.496
8 | HCC-827 | 0.515 | 0.471 | – | 0.65 | 0.471 | 0.237 | 0.249 | – | 0.24 | 0.276 | 0.352 | 0.408 | 0.299 | 0.354 | 0.982 | 1.04 | 1.06 | 0.993
9 | HOP-62 | 0.438 | 0.357 | 0.526 | 0.459 | 0.349 | 0.3 | 0.248 | 0.315 | 0.325 | 0.323 | 0.221 | 0.242 | 0.235 | 0.214 | 1.14 | 0.921 | 0.633 | 0.775
10 | LC-2-ad | 0.4 | 0.518 | 0.528 | 0.508 | 0.461 | 0.275 | 0.285 | 0.268 | 0.269 | 0.233 | 0.773 | 0.788 | 0.742 | 0.706 | 0.768 | 0.977 | 1 | 0.392
11 | LCLC-97TM1 | 0.22 | 0.226 | 0.219 | 0.241 | 0.236 | 0.178 | 0.177 | 0.195 | 0.184 | 0.191 | – | 0.178 | 0.202 | 0.254 | 0.297 | 0.228 | 0.272 | 0.328
12 | LCLC-103H | 0.38 | 0.506 | 0.482 | 0.513 | 0.558 | 0.419 | 0.485 | 0.484 | 0.464 | 0.493 | 0.747 | 0.735 | 0.731 | 0.716 | 1 | 0.997 | 0.946 | 1.09
13 | LK-2 | 0.734 | 0.621 | 0.853 | 0.599 | 0.69 | 0.262 | 0.301 | 0.285 | 0.248 | 0.336 | 0.29 | 0.14 | 0.341 | 0.362 | 1.17 | 1.05 | 1.13 | 1.12
14 | LOU-NH91 | 0.59 | 0.506 | 0.547 | 0.577 | 0.567 | 0.394 | 0.397 | 0.386 | 0.377 | 0.436 | 0.766 | 0.812 | 0.852 | 0.831 | 0.767 | 0.674 | 0.76 | 0.745
15 | LU99A | 0.39 | 0.404 | 0.422 | 0.432 | 0.249 | 0.206 | 0.189 | 0.179 | 0.189 | 0.183 | 0.84 | 0.808 | 0.824 | 0.936 | 0.541 | 0.453 | 0.456 | 0.439
16 | LXF-289 | 0.52 | 0.603 | 0.649 | 0.594 | 0.574 | 0.789 | 0.827 | 1 | 0.83 | 0.867 | 0.354 | 0.39 | 0.371 | 0.379 | 1.02 | 1.04 | 0.967 | 0.939
